Measurements from the supplement of paper PMC4862054.
“And” between values parts separate entries of the source, which are not always exact repeats. Identical values can stand only once.

How the values were obtained:
Details in all cases: incubation time: 72 h
[1] = tested on: CAL-148; assay: normalised viability (% of control), CellTiter-Blue; higher = more viable cells (about 100 = DMSO control)
Description: (§1)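 DSRT, CellTiter-Blue viability, 72 h incubation. Signal is normalised to DMSO and benzethonium chloride controls. Value is the normalised response at dose 8.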

[2] = tested on: CAL-51; assay: as above
Description: as §1

[3] = tested on: CAL-85-1; assay: as above
Description: as §1

[4] = tested on: DU-4475; assay: as above
Description: as §1

[5] = tested on: HDQ-P1; assay: as above
Description: as §1

[6] = tested on: MDA-MB-453; assay: as above
Description: as §1

[7] = tested on: BT-474; assay: normalised response (% of control), CellTox Green; higher = less cell death (100 = DMSO, 0 = benzethonium chloride kill control)
Method in brief: (§2)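 After 72 h with compound in 384-well plates, breast cancer cell lines seeded as 20 µl suspension were read for CellTox Green fluorescence at 485/520 nm. CellTiter-Glo luminescence was then read after 10 min at room temperature. Compound was present at 5 concentrations in 10-fold steps over a 10,000-fold range set per compound, and plates were normalised to 0.1 % DMSO (100) and a positive kill control (0). Values are normalised signals, each at a single concentration.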

[8] = tested on: BT-549; assay: as above
Method in brief: as §2

[9] = tested on: CAL-120; assay: as above
Method in brief: as §2

[10] = tested on: CAL-148; assay: as above
Method in brief: as §2

[11] = tested on: CAL-51; assay: as above
Method in brief: as §2

[12] = tested on: CAL-85-1; assay: as above
Method in brief: as §2

[13] = tested on: DU-4475; assay: as above
Method in brief: as §2

[14] = tested on: HCC1143; assay: as above
Method in brief: as §2

[15] = tested on: HCC1599; assay: as above
Method in brief: as §2

[16] = tested on: HCC1937; assay: as above
Method in brief: as §2

[17] = tested on: HDQ-P1; assay: as above
Method in brief: as §2

[18] = tested on: Hs578T; assay: as above
Method in brief: as §2

[19] = tested on: MCF-10A; assay: as above
Method in brief: as §2

[20] = tested on: MDA-MB-231; assay: as above
Method in brief: as §2

[21] = tested on: MDA-MB-436; assay: as above
Method in brief: as §2

[22] = tested on: MDA-MB-453; assay: as above
Method in brief: as §2

[23] = tested on: MDA-MB-468; assay: as above
Method in brief: as §2

[24] = tested on: MFM-223; assay: as above
Method in brief: as §2

[25] = tested on: BT-474; assay: normalised response (% of control), CellTiter-Glo; higher = more viable cells (100 = DMSO, 0 = benzethonium chloride kill control)
Description: (§3)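 DSRT, 72 h incubation, CellTox Green / CellTiter-Glo readout. Signal is normalised to DMSO and benzethonium chloride controls. Value is the normalised response at the highest dose.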

[26] = tested on: BT-549; assay: as above
Description: as §3

[27] = tested on: CAL-120; assay: as above
Description: as §3

[28] = tested on: CAL-148; assay: as above
Description: as §3

[29] = tested on: CAL-51; assay: as above
Description: as §3

[30] = tested on: CAL-85-1; assay: as above
Description: as §3

[31] = tested on: DU-4475; assay: as above
Description: as §3

[32] = tested on: HCC1143; assay: as above
Description: as §3

[33] = tested on: HCC1599; assay: as above
Description: as §3

[34] = tested on: HCC1937; assay: as above
Description: as §3

[35] = tested on: HDQ-P1; assay: as above
Description: as §3

[36] = tested on: Hs578T; assay: as above
Description: as §3

[37] = tested on: MCF-10A; assay: as above
Description: as §3

[38] = tested on: MDA-MB-231; assay: as above
Description: as §3

[39] = tested on: MDA-MB-436; assay: as above
Description: as §3

[40] = tested on: MDA-MB-453; assay: as above
Description: as §3

[41] = tested on: MDA-MB-468; assay: as above
Description: as §3

[42] = tested on: MFM-223; assay: as above
Description: as §3

[43] = tested on: SK-BR-3; assay: as above
Description: as §3

[44] = tested on: CAL-148; assay: normalised viability (% of control), CellTiter-Blue; higher = more viable cells (about 100 = DMSO control); remark: listed apart in the source
Description: (§4)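 DSRT, CellTiter-Blue viability, 72 h incubation. Signal is normalised to DMSO and benzethonium chloride controls. Value is the normalised response at dose 6.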

[45] = tested on: CAL-51; assay: as above; remark: listed apart in the source
Description: as §4

[46] = tested on: CAL-85-1; assay: as above; remark: listed apart in the source
Description: as §4

[47] = tested on: DU-4475; assay: as above; remark: listed apart in the source
Description: as §4

[48] = tested on: MDA-MB-453; assay: as above; remark: listed apart in the source
Description: as §4

Compound: CCS(=O)(=O)c1cccc(-c2cc(C(=O)NC3CCN(C)CC3)c(C)c3[nH]c4ncc(C)cc4c23)c1 [TAK-901] (300 nM)
- normalised viability [1]: 74%
- normalised viability [2]: 42.5%
- normalised viability [3]: 53.2%
- normalised viability [4]: 76.5%
- normalised viability [5]: 49.2%
- normalised viability [6]: 60%

Compound: CN1CCN(c2ccc3nc(-c4c(N)c5c(F)cccc5[nH]c4=O)[nH]c3c2)CC1 [Dovitinib] (3000 nM)
- normalised viability [1]: 90.2%
- normalised viability [2]: 109%
- normalised viability [3]: 86.9%
- normalised viability [4]: 87.9%
- normalised viability [5]: 87.4%
- normalised viability [6]: 93.4%

Compound: CC[C@@]1(O)C(=O)OCc2c1cc1n(c2=O)Cc2cc3ccccc3nc2-1 [Camptothecin] (1500 nM)
- normalised viability [1]: 1.27%
- normalised viability [2]: 4.85%
- normalised viability [3]: 25.1%
- normalised viability [4]: 0.88%
- normalised viability [5]: 31.6%
- normalised viability [6]: 21.5%

Compound: C[C@@H]1CCN(C(=O)CC#N)C[C@@H]1N(C)c1ncnc2[nH]ccc12 [Tofacitinib] (5000 nM)
- normalised response [7]: 102%
- normalised response [8]: 120%
- normalised response [9]: 103%
- normalised response [10]: 101%
- normalised response [11]: 89.2%
- normalised response [12]: 63.8%
- normalised response [13]: 108%
- normalised response [14]: 117%
- normalised response [15]: 114%
- normalised response [16]: 111%
- normalised response [17]: 113%
- normalised response [18]: 126%
- normalised response [19]: 105%
- normalised response [20]: 124%
- normalised response [21]: 113%
- normalised response [22]: 110%
- normalised response [23]: 142%
- normalised response [24]: 103%
- normalised response [25]: 98.2%
- normalised response [26]: 105%
- normalised response [27]: 99.8%
- normalised response [28]: 109%
- normalised response [29]: 76.6%
- normalised response [30]: 109%
- normalised response [31]: 99.4%
- normalised response [32]: 102%
- normalised response [33]: 106%
- normalised response [34]: 100%
- normalised response [35]: 102%
- normalised response [36]: 101%
- normalised response [37]: 97.2%
- normalised response [38]: 114%
- normalised response [39]: 110%
- normalised response [40]: 105%
- normalised response [41]: 105%
- normalised response [42]: 104%
- normalised response [43]: 106%

Compound: FC(F)c1nc2ccccc2n1-c1nc(N2CCOCC2)nc(N2CCOCC2)n1 [ZSTK474] (10000 nM)
- normalised response [7]: 86.6%
- normalised response [8]: 73.5%
- normalised response [9]: 98.6%
- normalised response [10]: 68.1%
- normalised response [11]: 70.5%
- normalised response [12]: 82.4%
- normalised response [13]: 96.3%
- normalised response [14]: 90.3%
- normalised response [15]: 88.4%
- normalised response [16]: 86.7%
- normalised response [17]: 99.7%
- normalised response [18]: 101%
- normalised response [19]: 106%
- normalised response [20]: 97.6%
- normalised response [21]: 84.2%
- normalised response [22]: 99.1%
- normalised response [23]: 157%
- normalised response [24]: 84.7%
- normalised response [25]: 44.8%
- normalised response [26]: 21.2%
- normalised response [27]: 34.6%
- normalised response [28]: 38.7%
- normalised response [29]: 16.4%
- normalised response [30]: 20.2%
- normalised response [31]: 67.5%
- normalised response [32]: 37.9%
- normalised response [33]: 71.7%
- normalised response [34]: 39.1%
- normalised response [35]: 33%
- normalised response [36]: 25.9%
- normalised response [37]: 26.2%
- normalised response [38]: 43.8%
- normalised response [39]: 40.6%
- normalised response [40]: 15.9%
- normalised response [41]: 36.6%
- normalised response [42]: 29.5%
- normalised response [43]: 22.4%

Compound: CS(=O)(=O)CCNCc1ccc(-c2ccc3ncnc(Nc4ccc(OCc5cccc(F)c5)c(Cl)c4)c3c2)o1 [Lapatinib] (300 nM)
- normalised viability [44]: 87.1% and 91.6%
- normalised viability [45]: 112% and 98.5%
- normalised viability [46]: 89.5% and 86.2%
- normalised viability [47]: 87.4% and 108%
- normalised viability [48]: 42.9% and 43.1%
